Data on nine compounds can be found in ChEMBL document CHEMBL1153286, “Synthesis and biological evaluation of sulfonylurea and thiourea derivatives substituted with benzenesulfonamide groups as potential hypoglycemic agents” (Bioorg Med Chem Lett, 2009).

What all share (format): functional
Assay [1] can be described thus: Effect on insulin release in rat pancreatic cells at 1 umol/L after 6 hrs by radioimmunoassay.
Assay [2] can be described thus: Effect on insulin release in rat pancreatic cells at 10 umol/L after 6 hrs by radioimmunoassay.
Assay [3] is described as follows: Effect on insulin release in rat pancreatic cells at 100 umol/L after 6 hrs by radioimmunoassay.
Assay [4] deals with Adipocyte. Kind of assay: Effect on 2-deoxy-D-[1-3H]glucose transport in Sprague-Dawley rat adipocytes at 10 uM in absence of insulin by liquid scintillation counting.
The subject of assay [5] is Adipocyte. In words: Effect on 2-deoxy-D-[1-3H]glucose transport in Sprague-Dawley rat adipocytes at 100 uM in absence of insulin by liquid scintillation counting.
For assay [6], the system named is Adipocyte. In words: Effect on 2-deoxy-D-[1-3H]glucose transport in Sprague-Dawley rat adipocytes at 1 uM in absence of insulin by liquid scintillation counting.
The subject of assay [7] is Adipocyte. Kind of assay: Effect on 2-deoxy-D-[1-3H]glucose transport in Sprague-Dawley rat adipocytes at 1 uM in presence of insulin by liquid scintillation counting.
For assay [8], the system named is Adipocyte. In words: Effect on 2-deoxy-D-[1-3H]glucose transport in Sprague-Dawley rat adipocytes at 100 uM in presence of insulin by liquid scintillation counting.
Assay [9] has as its system Adipocyte. Kind of assay: Effect on 2-deoxy-D-[1-3H]glucose transport in Sprague-Dawley rat adipocytes at 10 uM in presence of insulin by liquid scintillation counting.

In the case of `COc1ccc(NC(=S)NS(=O)(=O)c2ccc(CCNS(=O)(=O)c3ccc(Cl)cc3)cc2)cc1`, the Activity in assay [1] is reported as 24.05 uIU/ml; in assay [2] it was 24.36 uIU/ml; in assay [3] it was 26.09 uIU/ml.
As for `Cc1ccc(NC(=S)NS(=O)(=O)c2ccc(CCNS(=O)(=O)c3ccc(C)cc3)cc2)cc1`, the Activity is on record as 21.99 uIU/ml in assay [1]; 24.24 uIU/ml in assay [2]; 4401.01 disintegrations/minute in the assay with Adipocyte [4]; 4513.06 disintegrations/minute in the assay on Adipocyte [5]; 20.87 uIU/ml in [3]; 4428.46 disintegrations/minute with Adipocyte [6]. The Activity with Adipocyte [7] is recorded as 5627.67 disintegrations/minute; in the assay on Adipocyte [8], 5624.51 disintegrations/minute; in the assay with Adipocyte [9], 5115.32 disintegrations/minute.
As to `COc1ccc(NC(=S)NS(=O)(=O)c2ccc(CCNS(=O)(=O)c3ccc(C)cc3)cc2)cc1`, the Activity in assay [1] was determined as 24.48 uIU/ml; in assay [2], 23.5 uIU/ml; in the assay with Adipocyte [4], 4381.35 disintegrations/minute; in the assay with Adipocyte [5] it was 4550.21 disintegrations/minute; in [3] it was 23.69 uIU/ml; in the assay on Adipocyte [6] it was 4425.16 disintegrations/minute. For the same compound, the Activity is recorded as 5026.34 disintegrations/minute in the assay on Adipocyte [7], 5573.24 disintegrations/minute with Adipocyte [8] and 5377.15 disintegrations/minute with Adipocyte [9].
As for `O=S(=O)(NCCc1ccc(S(=O)(=O)NC(=S)Nc2ccc(Cl)cc2)cc1)c1ccccc1`, the Activity is listed as 28.94 uIU/ml in [1], 32.1 uIU/ml in [2] and 26.06 uIU/ml in [3].
In the case of `O=C(NC1CCCCC1)NS(=O)(=O)c1ccc(CCNS(=O)(=O)c2ccccc2)cc1`, the figures for the Activity in assay [1], in assay [2] and in assay [3] were 22.86 uIU/ml, 28.27 uIU/ml and 31.29 uIU/ml, respectively.
Consider `CC1CCC(NC(=O)NS(=O)(=O)c2ccc(CCNS(=O)(=O)c3ccccc3)cc2)CC1` (configuration not stated), for which the Activity in [1] is 32.15 uIU/ml; in assay [2], 41.29 uIU/ml; in assay [3], 52.23 uIU/ml.
Take `COc1ccc(NC(=S)NS(=O)(=O)c2ccc(CCNS(=O)(=O)c3ccccc3)cc2)cc1`: the Activity turned out to be 22.86 uIU/ml in assay [1]; 24.98 uIU/ml in assay [2]; 4118.78 disintegrations/minute in the assay on Adipocyte [4]; 4366.76 disintegrations/minute with Adipocyte [5]; 23.42 uIU/ml in assay [3]; 4179.5 disintegrations/minute in the assay with Adipocyte [6]. Besides, the results for the Activity with Adipocyte [7], in the assay with Adipocyte [8] and in the assay on Adipocyte [9] were 5708.43 disintegrations/minute, 6987.19 disintegrations/minute and 7555.71 disintegrations/minute, respectively.
`CC(=O)Nc1ccc(S(=O)(=O)NCCc2ccc(S(=O)(=O)NC(=O)NC3CCC(C)CC3)cc2)cc1` (configuration not stated): the Activity in assay [1] is 30.18 uIU/ml; in assay [2], 36.67 uIU/ml; with Adipocyte [4], 5616.15 disintegrations/minute; in the assay on Adipocyte [5] it was 6736.82 disintegrations/minute; in assay [3] it was 28.52 uIU/ml; in the assay on Adipocyte [6], 4215.36 disintegrations/minute. For the same compound, the Activity with Adipocyte [7] is given as 5087.78 disintegrations/minute; in the assay with Adipocyte [8], 6812.33 disintegrations/minute; with Adipocyte [9], 6200.35 disintegrations/minute.
Consider `O=C(NC1CCCCC1)NS(=O)(=O)c1ccc(CCNS(=O)(=O)c2ccc(Cl)cc2)cc1`, for which the Activity in [1] stood at 33.95 uIU/ml; in [2] it was 41.18 uIU/ml; in the assay with Adipocyte [4], 5878.83 disintegrations/minute; with Adipocyte [5], 6632.7 disintegrations/minute; in assay [3], 55.03 uIU/ml; in the assay with Adipocyte [6], 4576.35 disintegrations/minute. For the same compound, the Activity with Adipocyte [7] was found to be 5217.31 disintegrations/minute; with Adipocyte [8] it was 6521.12 disintegrations/minute; with Adipocyte [9] it was 5933.89 disintegrations/minute.
